Values quoted from earlier work as cited in patent US20240016731A1, “Drug Implants Containing Apalutamide and Methods of Use Thereof” (The Regents of the University of California, priority 2020, published 2024).

Conditions: systemic (e.g., oral) administration, assuming 240 mg daily dose

## CNC(=O)c1ccc(N2C(=S)N(c3cnc(C#N)c(C(F)(F)F)c3)C(=O)C23CCC3)cc1F [apalutamide, Apalutamide]
  steady state blood plasma concentration of apalutamide: about 6 μg/ml
